According to BindingDB's records for doi:10.1021/ml400235c (Korea Research Institute of Technology, 2013):
pIC50: −log10 of the molar value.

Legend:
[1] = Antagonist activity at PAR1 in washed human platelets assessed as inhibition of haTRAP-induced platelet aggregation preincubated for 1 hr followed by haTRAP addition measured for 10 mins by spectrophotometric analysis
[2] = Antagonist activity at PAR1 in human platelet rich plasma assessed as inhibition of haTRAP-induced platelet aggregation preincubated for 1 hr followed by haTRAP addition measured for 10 mins by spectrophotometric analysis

SMILES	pIC50 [1]	pIC50 [2]
CC(=O)N(C)C1C[C@@H]2CCCC[C@@H]2[C@H]1/C=C/c1ccc(-c2cccc(F)c2)cn1 (stereo not given in full)	6.68	5.05
CS(=O)(=O)NC1C[C@@H]2CCCC[C@@H]2[C@H]1/C=C/c1ccc(-c2cccc(F)c2)cn1 (stereo not given in full)	6.85	5.41
O=C1NCC2(C[C@@H]3CCCC[C@@H]3[C@H]2C=Cc2ccc(-c3cccc(F)c3)cn2)O1 (stereo not given in full)	8.14	6.68
Fc1cccc(-c2ccc(/C=C/[C@@H]3[C@H]4CCCC[C@H]4CC34OCCO4)nc2)c1	6.39	5.39
CS(=O)(=O)OC1C[C@@H]2CCCC[C@@H]2[C@H]1/C=C/c1ccc(-c2cccc(F)c2)cn1 (stereo not given in full)	8.22	

These reach a higher pIC50 [1]. Values come first.

pIC50 [1]	pIC50 [2]	SMILES
8.54	7.00	CC1(OC(N)=O)C[C@@H]2CCCC[C@@H]2[C@H]1C=Cc1ccc(-c2cccc(F)c2)cn1 (stereo not given in full)
8.66	7.01	CN(C1C[C@@H]2CCCC[C@@H]2[C@H]1/C=C/c1ccc(-c2cccc(F)c2)cn1)S(C)(=O)=O (stereo not given in full)
8.82	6.92	CCOC(=O)N[C@@H]1CC[C@@H]2[C@@H](C1)C[C@H]1C(=O)O[C@H](C)[C@H]1[C@H]2C=Cc1ccc(-c2cccc(F)c2)cn1 [Ethyl [(3aR,4aR,8aR,9aS)-9(S)-[(E)-2-[5-(3-fluorophenyl)-2-pyridinyl]ethenyl]dodecahydro-1(R)-methyl-3-oxonaphtho[2,3-c]furan-6(R)-yl]carbamate]
